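Method: 48-hour compound exposure of cells in 96-well plates, five concentrations, linear interpolation of endpoints. At the GI50, growth is halved. TGI: concentration producing complete growth inhibition.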 Where a SMILES comes first, the peptide text is derived from it.
Experiments:
Assay in all cases: NCI anticancer screen, dose series, 48 h
HOP-92 NSCLC = system: HOP-92 NSCLC
HS 578T breast = system: HS 578T breast
SNB-19 CNS = system: SNB-19 CNS
HCT-15 colon = system: HCT-15 colon
K-562 leukemia = system: K-562 leukemia
DU-145 prostate = system: DU-145 prostate
OVCAR-4 ovarian = system: OVCAR-4 ovarian
SF-268 CNS = system: SF-268 CNS
MDA-MB-231 breast = system: MDA-MB-231 breast
COLO 205 colon = system: COLO 205 colon

SMILES | TGI (HOP-92 NSCLC) | TGI (HS 578T breast) | TGI (SNB-19 CNS) | TGI (HCT-15 colon) | TGI (K-562 leukemia) | TGI (DU-145 prostate) | TGI (OVCAR-4 ovarian) | TGI (SF-268 CNS) | TGI (MDA-MB-231 breast) | TGI (COLO 205 colon) | GI50 (HOP-92 NSCLC) | GI50 (HS 578T breast) | GI50 (SNB-19 CNS) | GI50 (HCT-15 colon) | GI50 (K-562 leukemia) | GI50 (DU-145 prostate) | GI50 (OVCAR-4 ovarian) | GI50 (SF-268 CNS) | GI50 (MDA-MB-231 breast) | GI50 (COLO 205 colon)
CCCC(CC)c1cc(O)c(O)cc1C(CC)CCC (stereo not drawn) | > 10 µM | > 10 µM | > 10 µM | > 10 µM | > 10 µM | > 10 µM | > 10 µM | > 10 µM | > 10 µM | > 10 µM |  |  |  |  |  |  |  |  |  | 
COC(=O)NC(Nc1ccc(C)cc1)(C(F)(F)F)C(F)(F)F | > 100 µM | > 100 µM | > 100 µM | > 100 µM | > 100 µM | > 100 µM |  | > 100 µM | > 100 µM | > 100 µM |  |  |  |  |  |  |  |  |  | 
CC(=O)Nc1nc(C)c(S(=O)(=O)NC(=O)N2c3ccccc3CCc3ccccc32)s1 | > 100 µM | > 100 µM | 71.9 µM | > 100 µM | > 100 µM | > 100 µM | > 100 µM | > 100 µM | > 100 µM | > 100 µM |  |  |  |  |  |  |  |  |  | 
COc1c(-c2ccc(F)cc2)oc2cc(O)cc(O)c2c1=O | > 100 µM | > 100 µM | > 100 µM | 38 µM | > 100 µM | 96.5 µM |  | > 100 µM | 43.9 µM | 36.7 µM |  |  |  |  |  |  |  |  |  | 
O=[N+]([O-])c1cccc([N+](=O)[O-])c1Cl | 45.3 µM | 82.3 µM | 33.2 µM | 31.6 µM | > 100 µM | 11.4 µM | 45.6 µM | 46.5 µM | 51.7 µM | 91.2 µM |  |  |  |  |  |  |  |  |  | 
COc1ccc(-c2cc(-c3ccc(OC)c(OC)c3)nc(SCCCC(=O)NO)n2)cc1 | 5.63 µM | 33 µM | 39.1 µM | 3.59 µM | > 100 µM | 17.7 µM | > 100 µM | 5.45 µM | 8.78 µM | 5.98 µM | 1.5 µM | 1.91 µM | 2.54 µM | 0.553 µM | 1.11 µM | 1.53 µM | 2.02 µM | 1.97 µM | 1.94 µM | 1.75 µM
O=C1c2ccccc2C2(c3ccc(Cl)cc3)N[C@@H]3CCCC[C@@H]3N12 (stereo partly drawn) | > 100 µM | > 100 µM | > 100 µM | > 100 µM | > 100 µM | > 100 µM | > 100 µM | > 100 µM | > 100 µM | > 100 µM |  |  |  |  |  |  |  |  |  | 
c1cc2c3c(c1)[C@@H]1O[C@@H]1c1cccc(c1-3)[C@@H]1O[C@H]21 | 50.2 µM | 40 µM | > 100 µM | 47.2 µM | > 100 µM | 38.7 µM | 56.3 µM | 33.6 µM | 41.8 µM | 44.6 µM |  |  |  |  |  |  |  |  |  | 
COC(CC1(CCNc2ccccc2)C(=O)N(COCC[Si](C)(C)C)c2ccccc21)OC (stereo not drawn) | 42.2 µM | 41.4 µM | 33.1 µM | 34.2 µM | > 100 µM | 64.7 µM | 28.6 µM | 26.3 µM | 48.4 µM | 9.09 µM |  |  |  |  |  |  |  |  |  | 
COc1ccc(OC)c(-c2cn3c(n2)sc2ccccc23)c1 | > 100 µM | > 100 µM | > 100 µM | > 100 µM | > 100 µM | > 100 µM | > 100 µM | > 100 µM | > 100 µM | > 100 µM |  |  |  |  |  |  |  |  |  | 
O=P1(N(CCCl)CCCl)NCCCO1 (stereo not drawn) | > 250 µM | > 250 µM | > 250 µM | > 250 µM | > 230 µM | > 250 µM | > 250 µM | > 250 µM | > 250 µM | > 250 µM |  |  |  |  |  |  |  |  |  | 
CCn1c(O)c(C(=O)NC(C)c2ccc([N+](=O)[O-])cc2)c(=O)n(CC)c1=S (stereo not drawn) | 8.48 µM | 7.42 µM | 10.8 µM | 10.7 µM | 3.6 µM | 8.98 µM | 12.1 µM | 15.3 µM | 10.8 µM | 3.29 µM |  |  |  |  |  |  |  |  |  | 
Cc1cc2nc3c(N)nn(CCN(C)C)c3nc2cc1C | > 100 µM | > 100 µM | > 100 µM | > 100 µM | > 100 µM | > 100 µM | > 100 µM | > 100 µM | > 100 µM | > 100 µM |  |  |  |  |  |  |  |  |  | 
O=C(O)c1cc(Nc2c(O)c3c(c(O)c2Cl)C(=O)C=CC3=O)ccc1O | > 10 µM | > 10 µM | > 10 µM | > 10 µM | > 10 µM | > 10 µM | > 10 µM | > 10 µM | > 10 µM | > 10 µM |  |  |  |  |  |  |  |  |  | 
CC(C)CCCC(C)[C@H]1CC[C@H]2NCCCC[C@]12C (stereo partly drawn) | 15.5 µM | 15.8 µM | 17.9 µM | 6.91 µM | 6.61 µM | 25.6 µM | 17.4 µM | 32.2 µM | 9.36 µM | 3.14 µM |  |  |  |  |  |  |  |  |  | 
Cn1c(=O)[nH]n(-c2ccc3ccccc3c2)c1=O | > 100 µM | > 100 µM | > 100 µM | > 100 µM | > 100 µM | > 100 µM | > 100 µM | > 100 µM | > 100 µM | > 100 µM |  |  |  |  |  |  |  |  |  | 

SMILES | TGI (HOP-92 NSCLC) | TGI (HS 578T breast) | TGI (SNB-19 CNS) | TGI (HCT-15 colon) | TGI (K-562 leukemia) | TGI (DU-145 prostate) | TGI (OVCAR-4 ovarian) | TGI (SF-268 CNS) | TGI (MDA-MB-231 breast) | TGI (COLO 205 colon) | GI50 (HOP-92 NSCLC) | GI50 (HS 578T breast) | GI50 (SNB-19 CNS) | GI50 (HCT-15 colon) | GI50 (K-562 leukemia) | GI50 (DU-145 prostate) | GI50 (OVCAR-4 ovarian) | GI50 (SF-268 CNS) | GI50 (MDA-MB-231 breast) | GI50 (COLO 205 colon)
C/C=C\C(CC(=O)NCCc1c[nH]c2ccccc12)CC(=O)OC (stereo not drawn) | > 100 µM | > 100 µM | > 100 µM | > 100 µM | > 100 µM | > 100 µM | > 100 µM | > 100 µM | > 100 µM | > 100 µM |  |  |  |  |  |  |  |  |  | 
CC1Cc2c(cc(N)nc2Br)NC1=O (stereo not drawn) | > 100 µM | > 100 µM | > 100 µM | > 100 µM | > 100 µM | > 100 µM | > 100 µM | > 100 µM | > 100 µM | > 100 µM |  |  |  |  |  |  |  |  |  | 
Cc1ccc(C(=O)NN=C(/N=N/c2cccc(C)c2)c2ccc(N(C)C)cc2)cc1 | > 100 µM | > 100 µM | > 100 µM | > 100 µM | > 100 µM | > 100 µM | > 100 µM | > 100 µM | > 100 µM | > 100 µM |  |  |  |  |  |  |  |  |  | 
CCCCN(CCCC)C1=Nc2ccccc2-n2c(nnc2C(=O)OCC)C1 | 81.5 µM | > 100 µM | > 100 µM |  | 86.9 µM | > 100 µM | > 100 µM | > 100 µM | > 100 µM | 36.2 µM |  |  |  |  |  |  |  |  |  | 
COc1cccc(OC/C(N=Cc2ccncc2)=N/NC(=O)c2ccncc2)c1 | > 100 µM | > 100 µM | > 100 µM | > 100 µM | > 100 µM | > 100 µM | > 100 µM | > 100 µM | > 100 µM | > 100 µM |  |  |  |  |  |  |  |  |  | 
CN1C(=O)C(CCO)(C(C)(C)C)c2ccccc21 (stereo not drawn) | > 100 µM | > 100 µM | > 100 µM | > 100 µM | > 100 µM | > 100 µM | > 100 µM | > 100 µM | > 100 µM | > 100 µM |  |  |  |  |  |  |  |  |  | 
O=C1/C(=C(/Br)I)c2ccccc2-c2ccccc21 | 8.07 µM | > 100 µM | 27 µM | 16.6 µM | 7.24 µM | 30 µM | 32.3 µM | 31.1 µM | 19.2 µM | 4.22 µM |  |  |  |  |  |  |  |  |  | 
Cc1sc2nc3n(sc4nc5sc(C)c(C)c5c(=O)n43)c(=O)c2c1C | > 100 µM | > 100 µM | > 100 µM | > 100 µM | > 100 µM | > 100 µM | > 100 µM | > 100 µM | > 100 µM | > 100 µM |  |  |  |  |  |  |  |  |  | 
C=C1CC(Cn2cc(Br)c(=O)[nH]c2=O)(c2ccc(Br)cc2)OC1=O (stereo not drawn) | 2.96 µM | > 32.4 µM | 30.4 µM | 3.85 µM | > 100 µM | 15.5 µM | 4.63 µM | 41.3 µM | 17.4 µM | 3.18 µM |  |  |  |  |  |  |  |  |  | 
CCOC(=O)COC1=Nc2cc(OC)c(OC)c3nc(Cl)cc(c23)C1=O | 3.22 µM | > 20.6 µM | 22.1 µM | 6.16 µM | 7.2 µM | 3.32 µM | 3.14 µM | 6.83 µM | 3.28 µM | 3.88 µM |  |  |  |  |  |  |  |  |  | 
CC(=O)OCC1(CNc2nc(N)ncc2C#N)CC(CCc2ccccc2)C1 (stereo not drawn) | 49.9 µM | > 100 µM |  | > 100 µM | > 100 µM | > 100 µM | > 100 µM | > 100 µM | > 100 µM | > 100 µM |  |  |  |  |  |  |  |  |  | 
CCC(C)C(NC(=O)C1CCCN1)C(=O)NC(C(=O)NCC(=O)NC(CC(N)=O)C(=O)NC(CC(C)C)C(=O)NC(CC(C)C)C(=O)NC(CCCCN)C(N)=O)C(C)C (stereo not drawn) (H-PIVGNLLK-NH2; configuration not given here) | > 75 µM | > 75 µM | > 75 µM | > 75 µM | > 75 µM | > 75 µM | > 75 µM | > 75 µM | > 75 µM | > 75 µM |  |  |  |  |  |  |  |  |  | 
COc1ccc(/C=N/N=C(\N)NO)c(OC)c1OC | 71.2 µM | > 100 µM | > 100 µM | > 100 µM | > 100 µM | > 100 µM | > 100 µM | > 100 µM | > 100 µM | > 100 µM |  |  |  |  |  |  |  |  |  | 
Cc1ccc(S(=O)(=O)CC2CCCn3c2c(C#N)c2ccccc23)cc1 (stereo not drawn) | > 100 µM | > 100 µM | > 100 µM | > 100 µM | > 100 µM | > 100 µM | > 100 µM | > 100 µM | > 100 µM | > 100 µM |  |  |  |  |  |  |  |  |  | 
O=C1/C(=C/c2cccs2)N=C(c2ccccc2)N1c1nc2ccccc2s1 | > 100 µM | 38.9 µM | > 100 µM | > 100 µM | > 100 µM | > 100 µM |  | 29.8 µM | > 100 µM |  |  |  |  |  |  |  |  |  |  | 
CCCOC1OC(CS(=O)(=O)O)C(OC(C)=O)C(OC(C)=O)C1OC(C)=O (stereo not drawn) | > 100 µM | > 100 µM | > 100 µM | > 100 µM | > 100 µM | > 100 µM | > 100 µM |  | > 100 µM | > 100 µM |  |  |  |  |  |  |  |  |  | 

— PubChem BioAssay (NCI)
